Laboratory results published in patent US9321782B2, “Process for preparation of novel 42-O-(heteroalkoxyalkyl) rapamicin compounds with anti-proliferative properties” (MERIL LIFE SCIENCES PVT. LTD., priority 2010, dated 2016).

Experiments:
[1] = Stability analysis (HPLC purity on storage) without BHT at various temperatures; type: physicochemical; conditions: without BHT
Description: (§1) To check the purity of the 42-O-(heteroalkoxyalkyl) rapamycin compounds the following condition was followed by using High Performance Liquid Chromatography, Phenomenex Synergi Hydro-RP 80a (250×4.6 ) mm, 4 micron column. The mobile phase was 65:15:20 methanol:acetonitile:water mixture. The detector was set at 276 nm and the flow rate was adjusted to 1.5 mL/min. Column temperature was 40° C. 2.0 μg of 42-O-(heteroalkoxyalkyl) rapamycin compounds was injected onto the column in a volume of 5.0 μL methanol with run time of 50 min.
The purity loss was higher at increased temperature, but there was no apparent change in the impurity profile. Table 2A presents the purity of various 42-O-(heteroalkoxyalkyl) rapamycin compounds at different time intervals and temperature conditions.

[2] = Stability analysis (HPLC purity on storage) with various concentrations of BHT at 40° C.; type: physicochemical; conditions: sealed container
Description: as §1
The inventors have also conducted the stability study of various 42-O-(heteroalkoxyalkyl) rapamycin compounds as mentioned above using various BHT concentrations. The study was conducted at 40° C. temperature in sealed container for 8 weeks.
42-O-(heteroalkoxyalkyl) rapamycin compounds obtained as per procedure described in Example 1 are respectively added with anti-oxidant, namely Butylated Hydroxytoluene (or BHT), at a concentration of 0.1%, 0.2%, 0.5%, and 1.0% (w/w) based on 100% (w/w) of 42-O-(heteroalkoxyalkyl) rapamycin compounds in sealed container to study the stability at 40° C. temperature. […] The purity data with the addition of different amounts of anti-oxidant as added to 42-O-(tetrahydrofuran-3-yl) rapamycin compound, 42-O-(oxetan-3-yl) rapamycin compound and 42-O-(tetrahydropyran-3-yl) rapamycin compound checked at different time intervals are summarized in Table 2B as below mentioned.

With `COC1CC(C[C@H](C)[C@@H]2CC(=O)[C@H](C)/C=C(\C)C(O)[C@@H](OC)C(=O)[C@H](C)C[C@H](C)/C=C/C=C/C=C(\C)[C@@H](OC)C[C@@H]3CC[C@@H](C)[C@@](O)(O3)C(=O)C(=O)N3CCCC[C@H]3C(=O)O2)CCC1OC1CCCOC1` (stereo partly shown) [Merilimus-3, 42-O-(tetrahydropyran-3-yl) rapamycin] as the compound, how does the “Purity (%)” value ([1]; 5° C. (sealed), 00 weeks after synthesis) read?
The value was 97.3%.

What about the “Purity (%)” value ([1]; 5° C. (sealed), 02 weeks after synthesis) of the same compound?
The value was 96.0%.

What about the “Purity (%)” value ([1]; 5° C. (sealed), 04 weeks after synthesis) of the same compound?
The value was 95.4%.

And the “Purity (%)” value ([1]; 5° C. (sealed), 08 weeks after synthesis)?
Its value is 94.5%.

And the “Purity (%)” value ([1]; 5° C. (sealed), 12 weeks after synthesis)?
The value was 93.9%.

What about the “Purity (%)” value ([1]; 25° C. (sealed), 00 weeks after synthesis) of the same compound?
Its value is 97.6%.

And the “Purity (%)” value ([1]; 25° C. (sealed), 02 weeks after synthesis)?
The value was 95.7%.

What about the “Purity (%)” value ([1]; 25° C. (sealed), 04 weeks after synthesis) of the same compound?
Its value is 95.2%.

What about the “Purity (%)” value ([1]; 25° C. (sealed), 08 weeks after synthesis) of the same compound?
The value was 94.6%.

What about the “Purity (%)” value ([1]; 25° C. (sealed), 12 weeks after synthesis) of the same compound?
The value was 93.5%.

What about the “Purity (%)” value ([1]; 25° C. (unsealed), 00 weeks after synthesis) of the same compound?
The value was 97.0%.

What about the “Purity (%)” value ([1]; 25° C. (unsealed), 02 weeks after synthesis) of the same compound?
The value was 95.3%.

What about the “Purity (%)” value ([1]; 25° C. (unsealed), 04 weeks after synthesis) of the same compound?
The value was 94.5%.

What about the “Purity (%)” value ([1]; 25° C. (unsealed), 08 weeks after synthesis) of the same compound?
The value was 93.8%.

And the “Purity (%)” value ([1]; 25° C. (unsealed), 12 weeks after synthesis)?
The value was 93.1%.

And the “Purity (%)” value ([1]; 40° C. (sealed), 00 weeks after synthesis)?
The value was 97.5%.

And the “Purity (%)” value ([1]; 40° C. (sealed), 02 weeks after synthesis)?
The value was 94.4%.

And the “Purity (%)” value ([1]; 40° C. (sealed), 04 weeks after synthesis)?
Its value is 93.7%.

And the “Purity (%)” value ([1]; 40° C. (sealed), 08 weeks after synthesis)?
The value was 92.3%.

And the “Purity (%)” value ([1]; 40° C. (sealed), 12 weeks after synthesis)?
The value was 91.6%.

And the “Purity (%)” value ([2]; BHT 0.0% (w/w), 0 week)?
The value was 97.5%.

What about the “Purity (%)” value ([2]; BHT 0.0% (w/w), 2 weeks) of the same compound?
Its value is 94.4%.

And the “Purity (%)” value ([2]; BHT 0.0% (w/w), 4 weeks)?
Its value is 93.7%.

What about the “Purity (%)” value ([2]; BHT 0.0% (w/w), 8 weeks) of the same compound?
Its value is 92.3%.

What about the “Purity (%)” value ([2]; BHT 0.1% (w/w), 0 week) of the same compound?
Its value is 97.5%.

And the “Purity (%)” value ([2]; BHT 0.1% (w/w), 2 weeks)?
The value was 95.9%.

And the “Purity (%)” value ([2]; BHT 0.1% (w/w), 4 weeks)?
Its value is 94.3%.

What about the “Purity (%)” value ([2]; BHT 0.1% (w/w), 8 weeks) of the same compound?
The value was 93.6%.

And the “Purity (%)” value ([2]; BHT 0.2% (w/w), 0 week)?
Its value is 97.6%.

And the “Purity (%)” value ([2]; BHT 0.2% (w/w), 2 weeks)?
The value was 96.3%.

What about the “Purity (%)” value ([2]; BHT 0.2% (w/w), 4 weeks) of the same compound?
The value was 95.6%.

And the “Purity (%)” value ([2]; BHT 0.2% (w/w), 8 weeks)?
The value was 94.1%.

And the “Purity (%)” value ([2]; BHT 0.5% (w/w), 0 week)?
Its value is 97.3%.

And the “Purity (%)” value ([2]; BHT 0.5% (w/w), 2 weeks)?
The value was 96.5%.

What about the “Purity (%)” value ([2]; BHT 0.5% (w/w), 4 weeks) of the same compound?
The value was 95.9%.

What about the “Purity (%)” value ([2]; BHT 0.5% (w/w), 8 weeks) of the same compound?
Its value is 94.5%.

And the “Purity (%)” value ([2]; BHT 1.0% (w/w), 0 week)?
The value was 97.4%.

What about the “Purity (%)” value ([2]; BHT 1.0% (w/w), 2 weeks) of the same compound?
Its value is 96.6%.

And the “Purity (%)” value ([2]; BHT 1.0% (w/w), 4 weeks)?
Its value is 95.6%.

And the “Purity (%)” value ([2]; BHT 1.0% (w/w), 8 weeks)?
The value was 94.9%.
